Read-outs that look alike come from different tables or passages of the source.
Tests used:
HIV protease = biological target: T1, HIV protease (Human immunodeficiency virus type 1 group M subtype B, UniProt P04585); test: biochemical; details: read-out: IC50 (concentration causing 50% inhibition of HIV protease)
T1 construct: an HIV-encoded enzyme known as HIV protease
From the text: The procedure is based on the capacity of the test compound to inhibit enzymatic cleavage by HIV protease of a decapeptide (the substrate) having an amino acid sequence which includes a known HIV protease cleavage site of a HIV polyprotein; see H. G. Krausslich et al., Proc. Natl. Acad. Sci. USA, 86, 807 (1989).
Anderson, S. Rakhit and C. Yoakim in the European patent application 443 560, published Aug. 28, 1991.

[1] = tested on: HIV (H9/HTLV-IIIB stock) in C8166 cells; test: Cell culture assay: inhibition of syncytia formation in HIV-infected C8166 cells (antiviral, anti-HIV effect); format: cell-based, HIV (HTLV-IIIB); human T4 cell line; details: Human immunodeficiency virus 1; C8166 cells; H9/HTLV-IIIB, 50 times TCID50; 72 h, 37°; read-out: EC50 (concentration causing 50% inhibition of syncytia formation)
From the text: Typical of such procedures are those described by S. Harada and N. Yamamoto, Jpn. J. Cancer Res. (Gann), 76, 432 (1985), and S. Harada et al., Science, 229, 563 (1985). An assay based on the latter procedures is described in the examples hereinafter.
In addition, Tables 1 to 8 list the results for exemplified compounds of formula 1 when assayed for antiviral (anti-HIV) effects according to the following protocol which is based on a cell culture assay previously described by Harada et al., supra. Transformed cells are used because of the rapidity with which HIV will replicate in the cells.
1. The test compound is dissolved in dimethylsulfoxide to a concentration of 5 mg/mL. The resultant solution .can be stored at 4° until use.
2. The resultant solution is diluted in RPMI 1640 (Gibco Laboratories, St. Lawrence, Mass., USA) to four times (4×) the final concentration which is to be tested. Once diluted in RPMI 1640, the solution is used in the cell culture assay within 4 h.
3. The latter solution (50 μL) is added to triplicate wells of a 96 well flat bottomed microtiter plate. RPMI (50 μL) also is added to control wells.
4. C8166 cells (5×10^4) in 50 μL of HEPES-buffered RPMI 1640 (pH=7.2), 10% heat inactivated fetal calf serum (FCS), […] gentamicin (complete media) are added to all wells.
5. Fifty times TCID50 of H9/HTLV-IIIB stock (stored in liquid nitrogen as cell culture supernatant in 50% FCS) in 100 μL of complete media is added to all wells. The infectious titer of the virus stocks is as previously determined by end point dilution on C8166 cells. The titer of stocks are stable for 6-12 months when stored at -193°.
6. Microtiter plates are then placed on level shelves of a 37°, 5% CO2 humidified incubator for 72 h.
7. Plates are then removed and centers of syncytia are counted in each well by low power phase contrast light microscopy. […] Control wells should have between 25 and 75 centers of syncytia per well.
8. Percent inhibition of syncytia formation is calculated by the formula: [formula]
The concentration of the test compound which causes a 50% inhibition of syncytia formation, i.e. the EC50, is determined by using the technique of serial dilution of the working solution at step 3 and graphically plotting the observed percent inhibition of syncytia formation against the various concentrations of the test compound.
In the following tables, assay results are listed for the exemplified compounds from the aforementioned recombinant HIV protease HPLC assay under the heading IC50 (nM) and from the cell culture assay under the heading EC50 (nM). Note that for some of the compounds listed in tables, the EC50 's have not been determined (ND).

[2] = recombinant HIV protease, decapeptide substrate, HPLC assay

Row | Structure (SMILES) | IC50 (HIV protease; [2]) | EC50 [1] | IC50 (HIV protease)
1 | CCC(CC)NC(=O)C[C@@H](C(=O)NC[C@@H](O)[C@H](Cc1ccccc1)NC(=O)[C@H](CC(N)=O)NC(=O)c1nccc2ccccc12)C(C)(C)C [Entry 7] | 20 nM |  | 
2 | CCC(CC)NC(=O)C(CC(=O)NC[C@@H](O)[C@H](Cc1ccccc1)NC(=O)[C@@H](NC(=O)OCc1ccccc1)C(C)C)CC(C)(C)C (some centres unmarked) [Entry 54] | 50 nM |  | 
3 | CC(C)[C@H](NC(=O)OCc1ccccc1)C(=O)N[C@@H](Cc1ccccc1)[C@H](O)CNC(=O)C1CCCCC1C(=O)NCC(C)(C)C (some centres unmarked) [Entry 55] | 66 nM |  | 
4 | CCCC(CCC)NC(=O)C[C@@H](C(=O)NC[C@@H](O)[C@H](Cc1ccccc1)NC(=O)[C@H](CC(N)=O)NC(=O)c1ccc2ccccc2n1)C(C)(C)C [Entry 44] | 4 nM | 57 nM | 
5 | CCC(CC)NC(=O)C[C@@H](C(=O)NC[C@@H](O)[C@H](Cc1ccccc1)NC(=O)[C@H](CCC(N)=O)NC(=O)OCc1ccccc1)C(C)(C)C [Entry 8] | 19 nM |  | 
6 | CCC(CC)NC(=O)C[C@@H](C(=O)NC[C@@H](O)[C@H](Cc1ccccc1)NC(=O)[C@@H](NC(=O)c1ccc2ccccc2n1)C(C)C)C(C)(C)C [Entry 29] |  | 52 nM | 3 nM
7 | CCC(CC)NC(=O)C[C@@H](C(=O)NC[C@@H](O)[C@H](Cc1ccc(O)cc1)NC(=O)COc1c(C)cccc1C)C(C)(C)C [Entry 63, N^1-(1-ethylpropyl)-N^4 -{3(S)-{{(2,6-dimethylphenoxy)-acetyl}amino}-2(R)-hydroxy-4-(4-hydroxyphenyl)butyl}-3(R)-tert-butylbutanediamide] | 3.1 nM | 110 nM | 
8 | CCC(CC)NC(=O)C[C@@H](C(=O)NC[C@@H](O)[C@H](Cc1ccccc1)NC(=O)[C@@H](NC(=O)OC(C)(C)C)[C@@H](C)C(=O)OCc1ccccc1)C(C)(C)C [Entry 4] | 80 nM |  | 
9 | CCC(CC)OC(=O)CC(C(=O)NC[C@@H](O)[C@H](Cc1ccccc1)NC(=O)[C@H](CC(N)=O)NC(=O)OCc1ccccc1)C(C)(C)C (some centres unmarked) [Entry 47] | 51 nM |  | 
10 | CCC(CC)NC(=O)C[C@H](C(=O)NC[C@@H](O)[C@H](Cc1ccccc1)NC(=O)[C@@H](NC(=O)OCc1ccccc1)C(C)(C)C)C(C)(C)C [Entry 60] | 29 nM |  | 
11 | CCC(CC)NC(=O)CC(C(=O)NC[C@@H](O)[C@H](Cc1ccccc1)NC(=O)[C@H](CC(N)=O)NC(=O)OCc1ccccc1)C(C)C (some centres unmarked) [Entry 48] | 32 nM |  | 
12 | CC(C)c1cccc(C(C)C)c1NC(=O)C[C@@H](C(=O)NC[C@@H](O)[C@H](Cc1ccccc1)NC(=O)[C@@H](NC(=O)c1ccc2ccccc2n1)[C@@H](C)O)C(C)(C)C [Entry 42] | 19 nM | 830 nM | 
13 | CCC(CC)NC(=O)C[C@@H](C(=O)NC[C@@H](O)[C@H](Cc1ccccc1)NC(=O)[C@H](CC(N)=O)NC(=O)c1cnc2ccccc2n1)C(C)(C)C [Entry 36] | 3 nM | 260 nM | 
14 | CCC(CC)NC(=O)C[C@@H](C(=O)NC[C@@H](O)[C@H](Cc1ccccc1)NC(=O)COc1c(C)cc(C)cc1C)C(C)(C)C [Entry 70] | 4.6 nM | 1200 nM | 
15 | CCC(CC)NC(=O)CC(C(=O)NC[C@@H](O)[C@H](Cc1ccccc1)NC(=O)[C@H](CC(N)=O)NC(=O)c1ccc2ccccc2n1)C(C)(C)C (some centres unmarked) [Entry 52] | 6 nM | 130 nM | 
16 | CCC(CC)NC(=O)C[C@@H](C(=O)NC[C@@H](O)[C@H](Cc1ccccc1)NC(=O)[C@H](CC(N)=O)NC(=O)CCc1ccccc1)C(C)(C)C [Entry 9] | 15 nM | 1900 nM | 
17 | CCC(CC)NC(=O)C[C@@H](C(=O)NC[C@@H](O)[C@H](Cc1ccccc1)NC(=O)[C@H](CC(N)=O)NC(=O)c1cnc2ccccc2c1)C(C)(C)C [Entry 39] | 2 nM |  | 
18 | CCCC(CCC)NC(=O)C1CCCCC1C(=O)NC[C@@H](O)[C@H](Cc1ccccc1)NC(=O)[C@@H](NC(=O)OCc1ccccc1)C(C)C (some centres unmarked) [Entry 56] | 29 nM |  | 

Row | Structure (SMILES) | IC50 (HIV protease; [2]) | EC50 [1] | IC50 (HIV protease)
19 | CCC(CC)NC(=O)C[C@@H](C(=O)NC[C@@H](O)[C@H](Cc1ccccc1)NC(=O)[C@@H](NC(=O)c1ccc2ccccc2n1)C1(C(=O)O)CCCC1)C(C)(C)C [Entry 33] | 3 nM |  | 
20 | CCC(CC)NC(=O)C[C@@H](C(=O)NC[C@@H](O)[C@H](Cc1ccccc1)NC(=O)[C@H](CC(N)=O)NC(=O)CCN1CCCCC1)C(C)(C)C [Entry 3] | 88 nM |  | 
21 | CCC(CC)NC(=O)C[C@@H](C(=O)NC[C@@H](O)[C@H](Cc1ccccc1)NC(=O)[C@H](CC(=O)O)NC(=O)OC(C)(C)C)C(C)(C)C [Entry 2] | 90 nM |  | 
22 | CCC(CC)NC(=O)C[C@@H](C(=O)NC[C@@H](O)[C@H](Cc1ccccc1)NC(=O)[C@H](CC(N)=O)NC(=O)CNc1ccccc1)C(C)(C)C [Entry 19] | 5 nM |  | 
23 | CCC(CC)NC(=O)C[C@@H](C(=O)NC[C@@H](O)[C@H](Cc1ccccc1)NC(=O)[C@@H](NC(=O)c1ccc2ccccc2n1)[C@@H](C)C(=O)O)C(C)(C)C [Entry 22] | 5 nM |  | 
24 | CCC(CC)NC(=O)C[C@@H](C(=O)NC[C@@H](O)[C@H](Cc1ccccc1)NC(=O)[C@H](CC(N)=O)NC(=O)c1ccc2ncccc2c1)C(C)(C)C [Entry 38] | 2 nM |  | 
25 | CCC(CC)NC(=O)C[C@@H](C(=O)NC[C@@H](O)[C@H](Cc1ccc(O)cc1)NC(=O)[C@@H](NC(=O)c1ccc2ccccc2n1)[C@@H](C)O)C(C)(C)C [Entry 62, N^1-(1-ethylpropyl)-N^4 -{3(S)-{[N-(2-quinolylcarbonyl)-threonyl]amino}-2(R)-hydroxy-4-(4-hydroxyphenyl)butyl}-3(R)-tert-butylbutanediamide] | 61 nM |  | 
26 | CCC(CC)NC(=O)C[C@@H](C(=O)NC[C@@H](O)[C@H](Cc1ccccc1)NC(=O)[C@H](CC(N)=O)NC(=O)C1Cc2ccccc2CN1)C(C)(C)C (some centres unmarked) [Entry 5] | 32 nM |  | 
27 | CCC(CC)NC(=O)C[C@@H](C(=O)NC[C@@H](O)[C@H](Cc1ccccc1)NC(=O)[C@H](CC(N)=O)NC(=O)NCc1ccccc1)C(C)(C)C [Entry 14] | 11 nM |  | 
28 | CCC(CC)NC(=O)C[C@@H](C(=O)NC[C@@H](O)[C@H](Cc1ccccc1)NC(=O)[C@@H](NC(=O)OC(C)(C)C)[C@@H](C)C(=O)O)C(C)(C)C [Entry 16] | 7 nM |  | 
29 | CCC(CC)NC(=O)C[C@@H](C(=O)NC[C@@H](O)[C@H](Cc1ccccc1)NC(=O)[C@@H](NC(=O)OC(C)(C)C)C(C)(C)C)C(C)(C)C [Entry 1] | 100 nM |  | 
30 | CCC(CC)NC(=O)C[C@@H](C(=O)NC[C@@H](O)[C@H](Cc1ccccc1)NC(=O)[C@H](CC(N)=O)NC(=O)C1Cc2ccccc2N1)C(C)(C)C (some centres unmarked) [Entry 30] |  |  | 3 nM
31 | CCC(CC)NC(=O)C[C@@H](C(=O)NC[C@@H](O)[C@H](Cc1ccccc1)NC(=O)[C@H](CC(N)=O)NC(=O)CCCCc1ccccc1)C(C)(C)C [Entry 12] | 13 nM |  | 
32 | CCC(CC)NC(=O)CC(C(=O)NC[C@@H](O)[C@H](Cc1ccccc1)NC(=O)[C@H](CC(N)=O)NC(=O)c1ccc2ccccc2n1)C(C)C (some centres unmarked) [Entry 50] | 9 nM |  | 
33 | CCC(CC)NC(=O)[C@H](CC(=O)NC[C@@H](O)[C@H](Cc1ccccc1)NC(=O)[C@@H](NC(=O)OCc1ccccc1)C(C)C)C(C)(C)C [Entry 61] | 13 nM |  | 
34 | CCC(CC)NC(=O)C1CCCCC1C(=O)NC[C@@H](O)[C@H](Cc1ccccc1)NC(=O)[C@@H](NC(=O)OCc1ccccc1)C(C)C (some centres unmarked) [Entry 57] | 14 nM |  | 
35 | CC(C)OC(=O)C[C@@H](C(=O)NC[C@@H](O)[C@H](Cc1ccccc1)NC(=O)[C@@H](NC(=O)c1ccc2ccccc2n1)[C@@H](C)O)C(C)(C)C [Entry 58, 3(R)-tert-butyl-4-{2(R)-hydroxy-4-phenyl-3(S)-{[N-(2-quinolylcarbonyl)threonyl]-amino}butylamino}-4-oxobutyric acid isopropyl ester] | 46 nM |  | 
36 | CCC(CC)NC(=O)C[C@@H](C(=O)NC[C@@H](O)[C@H](Cc1ccccc1)NC(=O)[C@H](CC(N)=O)NC(=O)C1Cc2ccccc2CN1)C(C)(C)C (some centres unmarked) [Entry 24] | 4 nM |  | 

— patent US5545640A, “Protease inhibiting succinic acid derivatives” (Bio-Mega/Boehringer Ingeleheim Research Inc., priority 1995, dated 1996)
